In patent publication US20260138990A1, “TRICYCLIC FUSED IMIDAZOLE COMPOUNDS AS CD38 MODULATORS AND USES THEREOF” (AEOVIAN PHARMACEUTICALS, INC., priority 2023, published 2026):
pIC50: −log10 of the molar value.

Columns and labels:
[1] = biological target: T1, human CD38 (Homo sapiens, UniProt P28907); test: NAD+ cyclase activity assay with human recombinant CD38 protein (ε-NAD fluorescence); assay type: biochemical; conditions: 1.9 nM human CD38, substrate ε-NAD, 30 min preincubation, fluorescence 300/410 nm
T1 construct: purchased Bio-Techne GmbH AVI2404
T1 sequence (P28907 1-300): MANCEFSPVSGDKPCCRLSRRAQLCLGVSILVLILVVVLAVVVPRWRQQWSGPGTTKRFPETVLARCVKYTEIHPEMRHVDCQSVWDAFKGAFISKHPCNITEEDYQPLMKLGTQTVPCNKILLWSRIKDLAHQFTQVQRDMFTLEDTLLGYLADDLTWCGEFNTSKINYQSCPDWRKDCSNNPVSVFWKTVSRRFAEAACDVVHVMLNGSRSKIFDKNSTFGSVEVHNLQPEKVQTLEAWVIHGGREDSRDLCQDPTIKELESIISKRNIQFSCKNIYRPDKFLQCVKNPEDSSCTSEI
In short: (§1)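 Recombinant CD38 (0.6 nM mouse or 1.9 nM human) in 40 mM HEPES/NaOH pH 7.5, 250 mM sucrose, 0.01% Tween was preincubated with compound for 30 min at room temperature, then […] ε-NAD was added. Fluorescence (ex 300/em 410 nm) was read continuously. Slopes over the linear phase were normalised to enzyme and no-enzyme controls and fitted from 12-point, threefold dose-response curves.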

[2] = biological target: T2, mouse CD38 (Mus musculus, UniProt P56528); test: NAD+ cyclase activity assay with mouse recombinant CD38 protein (ε-NAD fluorescence); assay type: biochemical; conditions: 0.6 nM mouse CD38, substrate ε-NAD, 30 min preincubation, fluorescence 300/410 nm
T2 construct: purchased Bio-Techne GmbH 4947-AC
T2 sequence (P56528 1-304): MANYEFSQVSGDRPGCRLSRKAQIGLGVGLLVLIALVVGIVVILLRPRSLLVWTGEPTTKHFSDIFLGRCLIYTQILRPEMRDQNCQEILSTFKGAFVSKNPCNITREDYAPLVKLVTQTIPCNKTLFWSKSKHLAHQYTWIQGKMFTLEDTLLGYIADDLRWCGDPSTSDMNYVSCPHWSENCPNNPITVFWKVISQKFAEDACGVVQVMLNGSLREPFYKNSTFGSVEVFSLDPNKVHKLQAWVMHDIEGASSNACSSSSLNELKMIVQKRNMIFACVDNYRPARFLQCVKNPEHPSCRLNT
In short: as §1

SMILES | pIC50 [1] | pIC50 [2]
O=C(N[C@@H]1CCC(F)(F)C1)c1cc(Cl)c2c(c1)-c1cncn1CCO2 [Compound 112A, (R)-8-Chloro-N-(3,3-difluorocyclopentyl)-5,6-dihydrobenzo[f]imidazo[1,5-d][1,4]oxazepine-10-carboxamide] | > 7.52 | > 9.00
O=C(N[C@H]1CC[C@H](N2CC(C(F)F)C2)CC1)c1ccc2c(c1)-c1cncn1CCO2 [Compound 113A, N-((1r,4r)-4-(3-(Difluoromethyl)azetidin-1-yl)cyclohexyl)-5,6-dihydrobenzo[f]imidazo[1,5-d][1,4]oxazepine-10-carboxamide] | > 7.52 | 8.00 to 9.00
CC(C)(O)[C@H]1CC[C@H](NC(=O)c2cc(F)c3c(c2)-c2cncn2CCO3)CC1 [Compound 114A, 8-Fluoro-N-((1r,4r)-4-(2-hydroxypropan-2-yl)cyclohexyl)-5,6-dihydrobenzo[f]imidazo[1,5-d][1,4]oxazepine-10-carboxamide] | > 7.52 | > 9.00
O=C(N[C@H]1CC[C@H](NCC(F)(F)F)CC1)c1cc(F)c2c(c1)-c1cncn1CCO2 [Compound 115A, 8-Fluoro-N-((1r,4r)-4-((2,2,2-trifluoroethyl)amino)cyclohexyl)-5,6-dihydrobenzo[f]imidazo[1,5-d][1,4]oxazepine-10-carboxamide] | > 7.52 | > 9.00
O=C(N[C@@H]1CCCC(F)(F)C1)c1ccc2c(c1)-c1cncn1CCO2 [Compound 116A, (R)—N-(3,3-Difluorocyclohexyl)-5,6-dihydrobenzo[f]imidazo[1,5-d][1,4]oxazepine-10-carboxamide] | > 7.52 | > 9.00
O=C(N[C@H]1CCCC(F)(F)C1)c1ccc2c(c1)-c1cncn1CCO2 [Compound 117A, (S)—N-(3,3-Difluorocyclohexyl)-5,6-dihydrobenzo[f]imidazo[1,5-d][1,4]oxazepine-10-carboxamide] | 7.00 to 7.52 | 8.00 to 9.00
O=C(N[C@H]1CC[C@@H](OCC2(C(F)(F)F)CC2)CC1)c1ccc2c(c1)-c1cncn1CCO2 [Compound 118A, N-((1s,4s)-4-((1-(Trifluoromethyl)cyclopropyl)methoxy)cyclohexyl)-5,6-dihydrobenzo[f]imidazo[1,5-d][1,4]oxazepine-10-carboxamide] | < 6.00 | < 7.00
O=C(NC1CCC(CC(F)(F)F)CC1)c1ccc2c(c1)-c1cncn1CCO2 (stereo not drawn) [Compound 119A, N-(4-(2,2,2-Trifluoroethyl)cyclohexyl)-5,6-dihydrobenzo[f]imidazo[1,5-d][1,4]oxazepine-10-carboxamide] | > 7.52 | 8.00 to 9.00
CC(C)(CO[C@H]1CC[C@H](NC(=O)c2ccc3c(c2)-c2cncn2CCO3)CC1)C(F)(F)F [Compound 120A, N-((1r,4r)-4-(3,3,3-Trifluoro-2,2-dimethylpropoxy)cyclohexyl)-5,6-dihydrobenzo[f]imidazo[1,5-d][1,4]oxazepine-10-carboxamide] | > 7.52 | 8.00 to 9.00
CC(C)(CO[C@H]1CC[C@@H](NC(=O)c2ccc3c(c2)-c2cncn2CCO3)CC1)C(F)(F)F [Compound 121A, N-((1s,4s)-4-(3,3,3-Trifluoro-2,2-dimethylpropoxy)cyclohexyl)-5,6-dihydrobenzo[f]imidazo[1,5-d][1,4]oxazepine-10-carboxamide] | < 6.00 | < 7.00
O=C(N[C@H]1CC[C@H](OCC(F)(F)F)CC1)c1ccc2c(c1)-c1cncn1CCO2 [Compound 122A, N-((1r,4r)-4-(2,2,2-Trifluoroethoxy)cyclohexyl)-5,6-dihydrobenzo[f]imidazo[1,5-d][1,4]oxazepine-10-carboxamide] | > 7.52 | 8.00 to 9.00
O=C(N[C@H]1CC[C@@H](OCC(F)(F)F)CC1)c1ccc2c(c1)-c1cncn1CCO2 [Compound 123A, N-((1s,4s)-4-(2,2,2-Trifluoroethoxy)cyclohexyl)-5,6-dihydrobenzo[f]imidazo[1,5-d][1,4]oxazepine-10-carboxamide] | 6.00 to 7.00 | 7.00 to 8.00
O=C(Nc1cnc(N2CC(C(F)F)C2)nc1)c1ccc2c(c1)-c1cncn1CCO2 [Compound 124A, N-(2-(3-(Difluoromethyl)azetidin-1-yl)pyrimidin-5-yl)-5,6-dihydrobenzo[f]imidazo[1,5-d][1,4]oxazepine-10-carboxamide] | > 7.52 | 7.00 to 8.00
CCC1CCC(NC(=O)c2ccc3c(c2)-c2cncn2CCO3)CC1 (stereo not drawn) [Compound 125A, N-(4-Ethylcyclohexyl)-5,6-dihydrobenzo[f]imidazo[1,5-d][1,4]oxazepine-10-carboxamide] | > 7.52 | 8.00 to 9.00
CC(O)C1CCC(NC(=O)c2ccc3c(c2)-c2cncn2CCO3)CC1 (stereo not drawn) [Compound 126A, N-(4-(1-Hydroxyethyl)cyclohexyl)-5,6-dihydrobenzo[f]imidazo[1,5-d][1,4]oxazepine-10-carboxamide] | 7.00 to 7.52 | 8.00 to 9.00
COC(C)(C)CO[C@H]1CC[C@H](NC(=O)c2ccc3c(c2)-c2cncn2CCO3)CC1 [Compound 127A, N-((1r,4r)-4-(2-Methoxy-2-methylpropoxy)cyclohexyl)-5,6-dihydrobenzo[f]imidazo[1,5-d][1,4]oxazepine-10-carboxamide] | > 7.52 | 8.00 to 9.00
COC(C)(C)CO[C@H]1CC[C@@H](NC(=O)c2ccc3c(c2)-c2cncn2CCO3)CC1 [Compound 128A, N-((1s,4s)-4-(2-Methoxy-2-methylpropoxy)cyclohexyl)-5,6-dihydrobenzo[f]imidazo[1,5-d][1,4]oxazepine-10-carboxamide] | 6.00 to 7.00 | 7.00 to 8.00
O=C(Nc1cnc2c(c1)OCCO2)c1cc(Cl)c2c(c1)-c1cncn1CCO2 [Compound 129A, 8-Chloro-N-(2,3-dihydro-[1,4]dioxino[2,3-b]pyridin-7-yl)-5,6-dihydrobenzo[f]imidazo[1,5-d][1,4]oxazepine-10-carboxamide] | > 7.52 | 8.00 to 9.00
O=C(N[C@@H]1CCCOC1)c1cc(F)c2c(c1)-c1cncn1CCO2 [Compound 130A, (R)-8-Fluoro-N-(tetrahydro-2H-pyran-3-yl)-5,6-dihydrobenzo[f]imidazo[1,5-d][1,4]oxazepine-10-carboxamide] | 7.00 to 7.52 | 8.00 to 9.00
CCC(O)(CN[C@H]1CC[C@H](NC(=O)c2ccc3c(c2)-c2cncn2CCO3)CC1)C(F)(F)F (stereo partly drawn) [Compound 131A, N-((1r,4r)-4-((2-Hydroxy-2-(trifluoromethyl)butyl)amino)cyclohexyl)-5,6-dihydrobenzo[f]imidazo[1,5-d][1,4]oxazepine-10-carboxamide] | > 7.52 | > 9.00
O=C(N[C@@H]1CCS(=O)(=O)C1)c1cc(F)c2c(c1)-c1cncn1CCO2 [Compound 132A, (R)—N-(1,1-Dioxidotetrahydrothiophen-3-yl)-8-fluoro-5,6-dihydrobenzo[f]imidazo[1,5-d][1,4]oxazepine-10-carboxamide] | > 7.52 | 8.00 to 9.00
CC(C1CCC(NC(=O)c2ccc3c(c2)-c2cncn2CCO3)CC1)C(F)(F)F (stereo not drawn) [Compound 133A, N-(4-(1,1,1-Trifluoropropan-2-yl)cyclohexyl)-5,6-dihydrobenzo[f]imidazo[1,5-d][1,4]oxazepine-10-carboxamide] | 7.00 to 7.52 | 8.00 to 9.00
O=C(NC1CC(F)(F)C1)c1cc(Cl)c2c(c1)-c1cncn1CCO2 [Compound 134A, 8-Chloro-N-(3,3-difluorocyclobutyl)-5,6-dihydrobenzo[f]imidazo[1,5-d][1,4]oxazepine-10-carboxamide] | > 7.52 | > 9.00
O=C(NC1CC(F)(F)C1)c1cc(F)c2c(c1)-c1cncn1CCO2 [Compound 135A, N-(3,3-Difluorocyclobutyl)-8-fluoro-5,6-dihydrobenzo[f]imidazo[1,5-d][1,4]oxazepine-10-carboxamide] | > 7.52 | > 9.00
CC1(F)CC(NC(=O)c2ccc3c(c2)-c2cncn2CCO3)C1 (stereo not drawn) [Compound 136A, N-(3-Fluoro-3-methylcyclobutyl)-5,6-dihydrobenzo[f]imidazo[1,5-d][1,4]oxazepine-10-carboxamide] | 7.00 to 7.52 | 8.00 to 9.00
O=C(NC1CCC(F)(F)CC1)c1cc(Cl)c2c(c1)-c1cncn1CCO2 [Compound 137A, 8-Chloro-N-(4,4-difluorocyclohexyl)-5,6-dihydrobenzo[f]imidazo[1,5-d][1,4]oxazepine-10-carboxamide] | > 7.52 | > 9.00
CC1(F)CC(NC(=O)c2cc(F)c3c(c2)-c2cncn2CCO3)C1 (stereo not drawn) [Compound 138A, 8-Fluoro-N-(3-fluoro-3-methylcyclobutyl)-5,6-dihydrobenzo[f]imidazo[1,5-d][1,4]oxazepine-10-carboxamide] | > 7.52 | 8.00 to 9.00
